# Data reported in article PMC6273978, “Synthesis and Pharmacological Evaluation of Novel Pleuromutilin Derivatives with Substituted Benzimidazole Moieties” (Molecules, 2016).
# Tests used:
# [1] = tested on: S. aureus; experiment: Oxford cup assay, zone of inhibition; assay type: cell-based; conditions: Staphylococcus aureus
# Procedure: (§1) The Oxford cup assays were carried out to evaluate the antibacterial activities against the above-mentioned six bacterial strains. The zones of inhibition for two concentrations (320 and 160 μg/mL) of the synthetic compounds and tiamulin fumarate were measured. The results of Oxford cup assay correspond with that obtained by agar dilution method (MICs) as a whole.
# (§2) The procedure for Oxford cup assays was the same as that previously reported. Briefly, inoculums were prepared in 0.9% saline using McFarland standard and spread uniformly on nutrient agar plates. The 320 and 160 µg/mL of all the tested compounds were added individually into the Oxford cups that were placed at equal distances above the agar surfaces. The zone of inhibition for each concentration was measured after a 24–36 h incubation at 37 °C. The same procedure was repeated in triplicate.
# [2] = tested on: S. warneri; experiment: Oxford cup assay, zone of inhibition; assay type: cell-based; conditions: Staphylococcus warneri
# Procedure: as §1, §2
# [3] = tested on: E. coli; experiment: Oxford cup assay, zone of inhibition; assay type: cell-based; conditions: Escherichia coli
# Procedure: as §1, §2
# [4] = tested on: MRSA; experiment: Oxford cup assay, zone of inhibition; assay type: cell-based; conditions: Staphylococcus aureus
# Procedure: as §1, §2
# [5] = tested on: S. haemolyticus; experiment: Oxford cup assay, zone of inhibition; assay type: cell-based; conditions: Staphylococcus haemolyticus
# Procedure: as §1, §2
# [6] = tested on: S. vitulinus; experiment: Oxford cup assay, zone of inhibition; assay type: cell-based, Staphylococcus vitulinus; conditions: Mammaliicoccus vitulinus
# Procedure: as §1, §2
# [7] = tested on: S. aureus; experiment: Inhibition of short-term bacterial growth (absorbance at 450 nm); assay type: cell-based; conditions: Staphylococcus aureus, 3.5 h, read-out: GI50 S. aureus growth
# Procedure: (§3) Compound 3, being the best antibacterial derivative, was chosen for further evaluation on its antibacterial effect to inhibit short-term S. aureus and MRSA growth (Figure 2). This includes the GI50 of tiamulin fumarate for S. aureus and MRSA.
# (§4) The inhibition activities of test compounds were evaluated by measuring the absorbance of the bacterial suspension. In brief, inoculums were prepared from blood slants and adjusted to approximately 10^6 CFU/mL in Muellere-Hinton broth. The 0.0625, 0.125, 0.25, 0.5, 1, and 2 µM of tested compounds were prepared and added to the prepared inoculums. A sample of inoculum with no compound was used as control. The absorbance of bacterial suspension at 450 nm was measured using an UV spectrophotometer after 3.5 h of incubation, and the inhibition was calculated as 1 − (A^P/A^0), where A^p and A^0 are the absorbance of bacterial suspension in the presence and absence of compounds, respectively. The same procedure was independently repeated in triplicate.
# [8] = tested on: MRSA; experiment: as above; assay type: cell-based; conditions: Staphylococcus aureus, 3.5 h incubation, Mueller-Hinton broth
# Procedure: as §3, §4
# [9] = target: T1, CYP2C19 (Homo sapiens, UniProt P33261); experiment: Cytochrome P450 inhibition cocktail assay, human liver microsomes; assay type: in vitro ADME; conditions: probe mephenytoin, metabolite 4-OH-S-mephenytoin
# T1 construct: Twenty microliters of human liver microsomes (final concentration of 0.3 mg/mL); from tissue; host or cells: human liver microsomes
# Procedure: (§5) The cytochrome P450 (CYP) proteins form a large family of heme proteins that catalyze many reactions involved xenobiotic metabolism and biosynthesis of cholesterol, steroids, and other lipid components. Some chemicals could affect the disposition of conventional pharmaceuticals through the inhibition of CYP450 enzymes. […] The selective probe substrate concentrations were prepared near to its respective Km value, and the compound 3 concentration range is from […].
# (§6) Compound 3 was screened for its ability to inhibit cytochrome P450 using a cocktail assay described previously. Briefly, 50 μL of compound 3 was added to 96-well plates, with final concentrations of 0.05, 0.1, 0.5, 1, 10, 50, and 100 μM, respectively. Twenty microliters of human liver microsomes (final concentration of 0.3 mg/mL) and 20 μL of probe substrates (Table 3) in 0.1 M Tris were added. After preincubation at 37 °C for 10 min, 10 μL of NADPH was added (final concentration of 1 mM), and the reaction started to incubate at the same temperature for 15 min. The reactions were then quenched by the addition of 100 μL of acetonitrile with a mixture of propranolol and nadolol (50 nM) used as an internal standard. After reactions were finished, the plates were centrifuged and the supernatants were analyzed for the five metabolites (Table 3) by LC/MS/MS.
# [10] = target: T2, CYP3A4 (Homo sapiens, UniProt P08684); experiment: as above; assay type: in vitro ADME; conditions: probe midazolam, metabolite 1-OH-midazolam
# T2 construct: Twenty microliters of human liver microsomes (final concentration of 0.3 mg/mL); from tissue; host or cells: human liver microsomes
# Procedure: as §5, §6
# [11] = target: T3, CYP2D6 (Homo sapiens, UniProt P10635); experiment: as above; assay type: in vitro ADME; conditions: probe dextromethorphan, metabolite dextrophan
# T3 construct: Twenty microliters of human liver microsomes (final concentration of 0.3 mg/mL); from tissue; host or cells: human liver microsomes
# Procedure: as §5, §6
# [12] = target: T4, CYP2C9 (Homo sapiens, UniProt P11712); experiment: as above; assay type: in vitro ADME; conditions: probe diclofenac, metabolite 4-OH-diclofenac
# T4 construct: Twenty microliters of human liver microsomes (final concentration of 0.3 mg/mL); from tissue; host or cells: human liver microsomes
# Procedure: as §5, §6
# [13] = target: T5, CYP1A2 (Homo sapiens, UniProt P05177); experiment: as above; assay type: in vitro ADME; conditions: probe phenacetin, metabolite acetaminophen
# T5 construct: Twenty microliters of human liver microsomes (final concentration of 0.3 mg/mL); from tissue; host or cells: human liver microsomes
# T5 sequence (P05177 1-516): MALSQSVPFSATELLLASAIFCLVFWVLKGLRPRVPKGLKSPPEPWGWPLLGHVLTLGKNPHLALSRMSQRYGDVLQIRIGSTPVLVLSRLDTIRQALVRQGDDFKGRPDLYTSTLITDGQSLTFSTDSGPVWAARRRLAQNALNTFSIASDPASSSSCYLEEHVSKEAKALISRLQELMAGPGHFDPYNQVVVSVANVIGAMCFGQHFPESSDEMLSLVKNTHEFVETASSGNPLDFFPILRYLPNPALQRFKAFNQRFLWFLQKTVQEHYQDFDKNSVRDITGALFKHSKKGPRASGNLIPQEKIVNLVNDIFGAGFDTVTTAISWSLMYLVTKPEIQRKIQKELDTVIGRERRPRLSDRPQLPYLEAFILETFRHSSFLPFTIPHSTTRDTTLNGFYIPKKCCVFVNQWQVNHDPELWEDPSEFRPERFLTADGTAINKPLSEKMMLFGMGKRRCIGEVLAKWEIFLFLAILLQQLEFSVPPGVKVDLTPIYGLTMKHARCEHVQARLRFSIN
# Procedure: as §5, §6
# T1 sequence (P33261 whole entry): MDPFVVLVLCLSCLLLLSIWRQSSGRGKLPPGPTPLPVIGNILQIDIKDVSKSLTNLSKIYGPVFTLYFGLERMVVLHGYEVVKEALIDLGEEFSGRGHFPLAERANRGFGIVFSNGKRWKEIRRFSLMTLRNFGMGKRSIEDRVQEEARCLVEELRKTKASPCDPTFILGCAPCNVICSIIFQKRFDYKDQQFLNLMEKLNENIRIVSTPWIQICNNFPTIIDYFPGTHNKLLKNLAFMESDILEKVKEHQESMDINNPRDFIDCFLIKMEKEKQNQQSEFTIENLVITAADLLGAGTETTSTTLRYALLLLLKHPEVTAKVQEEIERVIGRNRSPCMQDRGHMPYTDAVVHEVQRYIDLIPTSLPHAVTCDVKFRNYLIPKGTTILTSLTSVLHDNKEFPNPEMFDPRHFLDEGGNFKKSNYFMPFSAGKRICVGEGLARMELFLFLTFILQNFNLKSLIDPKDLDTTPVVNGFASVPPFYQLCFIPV
# T2 sequence (P08684 whole entry): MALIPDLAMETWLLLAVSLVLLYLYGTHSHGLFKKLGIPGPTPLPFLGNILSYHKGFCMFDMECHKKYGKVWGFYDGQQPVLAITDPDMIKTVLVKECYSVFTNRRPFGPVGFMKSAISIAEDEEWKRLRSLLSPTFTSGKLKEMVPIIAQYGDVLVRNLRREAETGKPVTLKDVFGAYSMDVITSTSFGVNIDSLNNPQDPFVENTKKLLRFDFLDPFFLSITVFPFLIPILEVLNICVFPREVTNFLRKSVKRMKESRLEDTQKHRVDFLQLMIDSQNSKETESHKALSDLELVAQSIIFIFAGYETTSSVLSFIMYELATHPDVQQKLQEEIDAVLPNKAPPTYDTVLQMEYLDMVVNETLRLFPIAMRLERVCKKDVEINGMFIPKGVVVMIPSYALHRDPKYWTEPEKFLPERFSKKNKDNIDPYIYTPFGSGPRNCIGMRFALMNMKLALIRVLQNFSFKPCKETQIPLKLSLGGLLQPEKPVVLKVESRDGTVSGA
# T4 sequence (P11712 whole entry): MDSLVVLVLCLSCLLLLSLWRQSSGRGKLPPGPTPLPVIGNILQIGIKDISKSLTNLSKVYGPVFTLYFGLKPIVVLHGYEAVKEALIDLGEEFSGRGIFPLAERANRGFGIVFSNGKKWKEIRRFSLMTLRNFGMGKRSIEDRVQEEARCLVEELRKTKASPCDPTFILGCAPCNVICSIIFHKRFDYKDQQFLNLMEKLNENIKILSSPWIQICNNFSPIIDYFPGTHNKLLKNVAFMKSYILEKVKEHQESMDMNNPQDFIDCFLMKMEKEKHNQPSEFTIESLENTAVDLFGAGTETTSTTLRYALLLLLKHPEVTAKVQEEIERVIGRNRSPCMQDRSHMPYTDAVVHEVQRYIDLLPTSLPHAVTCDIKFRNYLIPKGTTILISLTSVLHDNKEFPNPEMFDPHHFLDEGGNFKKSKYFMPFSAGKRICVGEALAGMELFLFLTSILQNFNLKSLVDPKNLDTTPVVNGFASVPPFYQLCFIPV
# T3 sequence (P10635 whole entry): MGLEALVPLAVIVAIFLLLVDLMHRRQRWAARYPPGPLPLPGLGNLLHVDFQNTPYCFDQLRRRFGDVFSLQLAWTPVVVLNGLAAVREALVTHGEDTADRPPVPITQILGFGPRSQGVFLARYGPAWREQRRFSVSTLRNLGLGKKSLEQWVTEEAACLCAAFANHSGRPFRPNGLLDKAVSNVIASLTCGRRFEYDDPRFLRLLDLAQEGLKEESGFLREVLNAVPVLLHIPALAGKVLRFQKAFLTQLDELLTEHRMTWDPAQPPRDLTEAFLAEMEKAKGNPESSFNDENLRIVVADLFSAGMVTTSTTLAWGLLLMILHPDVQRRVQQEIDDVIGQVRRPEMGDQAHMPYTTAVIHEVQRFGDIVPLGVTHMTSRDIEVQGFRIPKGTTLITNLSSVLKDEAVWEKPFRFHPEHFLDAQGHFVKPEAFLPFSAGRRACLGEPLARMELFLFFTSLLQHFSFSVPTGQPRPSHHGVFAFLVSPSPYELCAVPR
structure (smiles),measurement,setting,value
"C=C[C@]1(C)C[C@@H](OC(=O)CSc2nc3ccc(N)cc3[nH]2)[C@]2(C)[C@H](C)CC[C@]3(CCC(=O)[C@H]32)[C@@H](C)[C@@H]1O [Compound 3, 14-O-((5-Amino-benzimidazole-2-yl)thioacetyl) Mutilin]",zone of inhibition at 160 µg/mL,[1]; 160 µg/mL,27.3 mm
same,zone of inhibition at 320 µg/mL,[1]; 320 µg/mL,29.6 mm
same,zone of inhibition at 160 µg/mL,[2]; 160 µg/mL,28 mm
same,zone of inhibition at 320 µg/mL,[2]; 320 µg/mL,32.3 mm
same,zone of inhibition at 160 µg/mL,[3]; 160 µg/mL,21.4 mm
same,zone of inhibition at 320 µg/mL,[3]; 320 µg/mL,25.5 mm
same,zone of inhibition at 160 µg/mL,[4]; 160 µg/mL,25.4 mm
same,zone of inhibition at 320 µg/mL,[4]; 320 µg/mL,30.6 mm
same,zone of inhibition at 160 µg/mL,[5]; 160 µg/mL,30.3 mm
same,zone of inhibition at 320 µg/mL,[5]; 320 µg/mL,33 mm
same,zone of inhibition at 160 µg/mL,[6]; 160 µg/mL,25.5 mm
same,zone of inhibition at 320 µg/mL,[6]; 320 µg/mL,29.6 mm
same,GI50,[7],98.7 nM
same,GI50,[8],175 nM
same,IC50,[9],> 50000 nM
same,IC50,[10],1690 nM
same,IC50,[11],> 100000 nM
same,IC50,[12],10700 nM
same,IC50,[13],> 50000 nM
